These results are taken from ChEMBL document CHEMBL1141342, “Cytotoxic C47-polyacetylene carboxylic acids from a marine sponge Pertrosia sp” (J Nat Prod, 2007).

Molecules are shown by their SMILES. ≈ marks a conversion by molar mass, not a printed value.

This assay concerns P388. Description: Cytotoxicity against mouse P388 cells. Type of assay: functional, cell-based.

The term IC50 denotes the midpoint of a concentration-inhibition curve. A higher IC50 goes with a need for much substance. Compound `C#C[C@@H](O)/C=C/CCCCCCC#C[C@H](O)C#C/C=C/CC/C=C\CCCC/C=C\CCCCCCCCCCCCCC/C=C\C#CC(=O)O` [PETROFORMYNIC ACID B] gave an IC50 of 0.4 µg/mL (≈ 0.574 µM).

Regarding `C#C[C@@H](O)/C=C/CCCCCCC#C[C@H](O)C#C/C=C/CC/C=C\CCCC/C=C\CCCCCCCCCCCCCCCCC#CC(=O)O` [PETROFORMYNIC ACID C], the IC50 amounted to 0.4 µg/mL (≈ 0.572 µM).
